This note sets out measurements from US7795386B2, “Peptides comprising an isoDGR motif” (Molmed SpA, priority 2004, dated 2010).

One data set deals with L-M mouse fibroblasts. Kind of data set: standard cytolytic assay with L-M mouse fibroblasts. The format is cell-based. To be noted: in vitro, L-M murine fibroblasts. The source says: Protein purity and identity were checked by SDS-PAGE, electrospray mass spectrometry and gel-filtration chromatography.
The cDNA coding for DGR-TNF (mouse TNF fused with the C-terminus of CDGRCG (SEQ ID NO: 24)) was obtained by PCR on NGR-TNF plasmid, using the following primers: 5′ […] 3′ (SEQ ID NO: 43) (5′ primer); 5′ […] ′3 (SEQ ID NO: 44) (3′ primer). Both primers were designed to allow the directional cloning into a pET101/D-TOPO plasmid expression kit (Invitrogen). The underlined sequence in 5′ primer contains the sequence necessary to enable the directional cloning and the initial translation codon whereas the 3′ primer contains the stop codon (underlined). The PCR reaction and the cloning procedure were performed as recommended by the manufacturer's instruction. […] The column was washed extensively 100 mM Tris-HCl buffer containing pH 8.0, loaded with DGR-TNF crude extract, diluted in 20 mM Tris-HCl buffer conatining 2 mM EDTA pH 8.0, and desorbed by elution with 7 M urea, 100 mM Tris-HCl, pH 8.0. DGR-TNF was then refolded as described (1). Briefly, the denatured products were dialyzed against 2.33 M urea, 100 mM Tris-HCl, pH 8.0 at 4° C. (140 min), followed by 1.55 M urea, 100 mM Tris-HCl, pH 8.0 (140 min), and 1 M urea, 100 mM Tris-HCl, pH 8 (140 min). Finally the products were dialyzed against 100 mM Tris-HCl, pH 8.0 (48 h). The products were centrifuged at 13000×g (10 min, 4° C.) and concentrated by ultra-filtration through a 10 KDa cut-off filter. All solutions used in the purification and refolding steps were prepared with sterile and endotoxin-free water (S.A.L.F. Laboratorio Farmacologico SpA, Bergamo, Italy). Protein concentration was measured using the BCA Protein Assay Reagent (Pierce, Rockford, Ill.). Protein purity and identity were checked by SDS-PAGE, electrospray mass spectrometry (ESI-MS) and analytical gel-filtration chromatography.

A further data set has as its system EA.hy926 cells. Kind of data set: EA.hy926 cell adhesion assay on coated microtiter plates. The format is cell-based, human. To be noted: for EA.hy926 cell adhesion to coated product after heat-treatment: 0.1 M ammonium bicarbonate buffer, pH 8.5, 16 h at 37° C.; for EA.hy926 cell adhesion to coated product: before heat treatment. As to the method:
Adhesion of EA.hy926 cells to microtiter plates coated with various peptides and proteins before and after accelerated aging. Accelerated aging was performed by peptide incubation in 0.1 M ammonium bicarbonate buffer, pH 8.5, for 16 h at 37° C. (“heat-treatment”). Adhesion to: recombinant FN-I4-5 or control protein (FN-I4-5 (SGS)) (A), synthetic FN-I5 (B), recombinant CNGRC-TNF, CNGRC-TNF1-11 and control CARAC-TNF1-11 peptide (C), CDGRC-TNF (D). Heat-treated (37° C.) and untreated (−20° C.) products were adsorbed onto the plastic surface of microtiter wells (overnight at 4° C.). Microphotograph of wells coated with 30 μg/ml of heat-treated FN-I5 or BSA (B, right) or with 10 μg/ml of recombinant CNGRC-TNF or CDGRC-TNF (C, right), ×200. Cell adhesion assay was carried out as described in Materials and Methods. The TNF fusion constructs, including the TNF1-11 fusion constructs, were made as described Materials and Methods, and include a “G” linker.
Untreated and “heat treated” fibronectin fragments, peptides and peptide-TNF conjugates were diluted at the desired concentration with 150 mM sodium chloride, 50 mM sodium phosphate, pH 7.3, and added to 96-well polyvinyl chloride microtiter plates (Falcon, Becton Dickinson). After overnight incubation at 4° C., the plates were washed, seeded with EA.hy926 cell in DMEM containing 0.1% BSA (40000 cells/well) and left to incubate for 2-3 h at 37° C., 5% CO2. Adherent cells were fixed and stained with crystal violet as described (Curnis et al., 2005).

The next data set addresses T1, αvβ3 integrin (Homo sapiens, UniProt P05106+P06756).
T1 construct: purchased Immunological Sciences
Nature of the data set: competitive binding of biotinylated FN-I5/streptavidin-peroxidase complexes to αvβ3-coated plates. To be noted: in words, FIG. 6C. On the procedure:
(C) Competitive binding of biotinylated FN-I5/streptavidin-peroxidase complexes to αvβ3-coated plates with various amounts of FN-I4-5 or FN-I4-5SGS (upper panel or peptides corresponding to the NGR loop (residues 258-271) of FN-I5 before and after heat treatment (lower panel).
Binding of biotinylated peptides (CNGRC (SEQ ID NO: 6)-TNF1-11, CARAC (SEQ ID NO: 36)-TNF1-11 and FN-I5) to purified integrins was studied using streptavidin-peroxidase conjugate complexes. Complexes were prepared by mixing various quantities (0.5-1 μg) of heat-treated biotinylated peptides in DPBS containing 3% BSA with 0.03 units of streptavidinperoxidase (binding capacity: 1 μg of biotin/unit of streptavidin-peroxidase) (final volume 15 μl). Complexes were diluted in 3% BSA-DPBS (1:500), added to microtiterplates coated with integrins as described above, and incubated for 2 h at room temperature. After washing with DPBS, bound peroxidase was detected by chromogenic reaction as described above. Each assay was carried out in triplicate.
The binding of heat-treated FN-I5, CNGRC (SEQ ID NO: 6)-TNF and short peptides to purified αvβ3, αvβ5, α5β1 and α1β1 integrins was then investigated by direct and competitive ELISA with integrins adsorbed on microtiterplates.

A further data set addresses T2, αvβ3 (Homo sapiens, UniProt P05106+P06756).
T2 construct: purchased Immunological Sciences
Nature of the data set: IC50 (μM). The source says:
Table printed on a drawing sheet, Figure 7
Head of the field: IC50 (μM)
The patent's description of the figure: FIG. 7 Competitive binding of NGR-TNF to αvβ3 with NGR-pep and its deamidated products to αvβ3.
First copying reader's note: Legend table of panel A (inhibition of bio-NGR-TNF binding to αvβ3): the first three body rows belong to the upper plot and the last five to the lower plot, which prints no head of its own; the plot marker symbols are left out.
Where the first naming reader finds the target: description_of_the_figure: FIG. 7 Competitive binding of NGR-TNF to αvβ3 with NGR-pep and its deamidated products to αvβ3.

The nature of data set [1]: stability / deamidation kinetics of peptides by RP-HPLC. It counts as physicochemical. To be noted: for stability under integrin binding assay conditions: assay conditions of competitive binding. On the procedure: RP-HPLC analysis of NGR-pep and its synthetic deamidation products (DGR-pep and isoDGR-pep) before and after incubation for 4 h at 37° C. in 0.1 M ammonium bicarbonate buffer, pH 8.5 (A and B) and in DMEM, pH 7.3 (A, inset). RP-HPLC was performed on a C-18 column (PepMap C18, PerSeptive Biosystem) as follows: buffer A, 0.1% trifluoroacetic acid (TFA) in water; buffer B, 95% acetonitrile, 0.1% TFA; 0% B for 10 min, linear gradient 20-40% B in 30 min, 100% B for 10 min; 0% B for 15 min (flow rate, 0.5 ml/min). Peak 1, 2 and 3 were identified by spiking the NGR-pep, after 2 h of incubation, with equal amount of the indicated peptide (C). NGR-pep (peak 1) rapidly converts to compounds corresponding to DGR-pep (peak 2) and isoDGR-pep (peak 3) (half-life, 2-4 h).
The stability of NGR and the kinetics of LisoDGR or DDGR formation at pH 7.3 (DMEM) and pH 8.5 (ammonium bicarbonate), were then investigated. To this aim the CNGRCGVRY (SEQ ID NO: 42) peptide (called NGR-pep) was synthesized and analyzed by reverse-phase HPLC, before and after incubation at 37° C. Residues GVRY (SEQ ID NO: 72) were added to the C-terminus of CNGRC (SEQ ID NO: 6) to enable column adsorption. In addition five peptides called, DGR-pep, D-DGR-pep, isoDGR-pep, D-isoDGR and SGR-pep, corresponding to the same sequence of NGR-pep except for the presence of D, D-D, L-isoD, D-isoD and S, respectively in place of N were prepared. The half-life of NGR-pep at pH 7.3 and 8.5, estimated from the height of the main chromatographic peak (peak 1), was about 4 and 2 h, respectively (FIG. 5A, inset). Peptides corresponding to deamidation products were stable under these conditions (FIG. 5B).
To identify peaks and to verify that the measured half-life correspond to Asn deamidation, and not to other structural changes, we analyzed heat-treated NGR-pep peptide spiked with fresh NGR-pep, or DGR-pep or isoDGR-pep peptides.

Read-outs that look alike come from different tables or passages of the source. *1 amine or outer side, *2 acyl side, *3 side chain or, on linkers, in order; H or OH if unused. Where a SMILES comes first, the peptide text is derived from it. Bridges are numbered along the chain shown (N, C = ends). [ ]: non-standard residue; d: D form. βAsp = O=C(O)[C@H](CC(=O)[*:2])N[*:1]

By IC50 is commonly meant the concentration that gives 50% inhibition. In general, half-life refers to the time in which the quantity being followed falls by half.

T2 sequence (P05106 27-788 limits assumed): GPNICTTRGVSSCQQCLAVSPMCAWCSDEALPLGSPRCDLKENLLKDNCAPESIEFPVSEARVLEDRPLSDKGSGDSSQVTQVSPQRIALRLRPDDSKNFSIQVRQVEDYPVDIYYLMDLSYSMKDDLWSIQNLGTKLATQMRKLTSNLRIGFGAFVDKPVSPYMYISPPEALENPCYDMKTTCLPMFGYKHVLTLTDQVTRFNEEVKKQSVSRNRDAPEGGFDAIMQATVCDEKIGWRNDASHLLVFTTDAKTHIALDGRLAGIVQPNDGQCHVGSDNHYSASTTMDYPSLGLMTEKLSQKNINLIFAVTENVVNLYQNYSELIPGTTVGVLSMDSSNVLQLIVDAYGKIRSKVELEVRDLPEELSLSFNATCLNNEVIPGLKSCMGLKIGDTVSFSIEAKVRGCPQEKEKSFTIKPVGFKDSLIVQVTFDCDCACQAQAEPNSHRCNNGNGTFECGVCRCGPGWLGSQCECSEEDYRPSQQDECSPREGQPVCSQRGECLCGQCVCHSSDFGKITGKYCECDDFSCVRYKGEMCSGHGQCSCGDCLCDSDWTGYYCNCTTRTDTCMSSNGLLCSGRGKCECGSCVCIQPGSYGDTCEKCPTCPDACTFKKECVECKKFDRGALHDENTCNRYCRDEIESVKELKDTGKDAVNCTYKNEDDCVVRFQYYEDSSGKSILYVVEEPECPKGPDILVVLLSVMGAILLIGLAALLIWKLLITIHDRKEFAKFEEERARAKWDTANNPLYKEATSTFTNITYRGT
T2 sequence (P06756 31-889 limits assumed): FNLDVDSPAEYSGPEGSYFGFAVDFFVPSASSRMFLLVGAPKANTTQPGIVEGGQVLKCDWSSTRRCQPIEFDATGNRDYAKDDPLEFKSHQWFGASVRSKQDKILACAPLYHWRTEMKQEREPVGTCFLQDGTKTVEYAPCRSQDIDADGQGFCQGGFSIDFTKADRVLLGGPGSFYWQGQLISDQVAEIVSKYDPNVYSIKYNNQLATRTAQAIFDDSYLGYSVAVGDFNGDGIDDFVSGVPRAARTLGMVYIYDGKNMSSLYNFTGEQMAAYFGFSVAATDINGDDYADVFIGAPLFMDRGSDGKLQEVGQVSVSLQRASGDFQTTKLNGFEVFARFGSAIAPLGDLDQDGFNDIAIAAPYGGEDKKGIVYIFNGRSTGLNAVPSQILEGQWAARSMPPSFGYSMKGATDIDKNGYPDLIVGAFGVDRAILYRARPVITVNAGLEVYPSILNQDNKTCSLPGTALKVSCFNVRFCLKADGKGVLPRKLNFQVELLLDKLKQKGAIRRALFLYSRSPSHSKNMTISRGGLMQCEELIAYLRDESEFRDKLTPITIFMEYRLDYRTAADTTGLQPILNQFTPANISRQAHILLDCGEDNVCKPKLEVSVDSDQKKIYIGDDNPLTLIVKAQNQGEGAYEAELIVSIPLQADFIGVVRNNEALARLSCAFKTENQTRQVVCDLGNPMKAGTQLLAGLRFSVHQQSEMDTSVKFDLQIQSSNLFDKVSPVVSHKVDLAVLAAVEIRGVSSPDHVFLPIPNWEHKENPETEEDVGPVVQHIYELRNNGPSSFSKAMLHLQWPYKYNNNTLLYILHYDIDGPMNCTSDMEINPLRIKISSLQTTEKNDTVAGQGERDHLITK
T2 sequence (P06756 891-1048 limits assumed): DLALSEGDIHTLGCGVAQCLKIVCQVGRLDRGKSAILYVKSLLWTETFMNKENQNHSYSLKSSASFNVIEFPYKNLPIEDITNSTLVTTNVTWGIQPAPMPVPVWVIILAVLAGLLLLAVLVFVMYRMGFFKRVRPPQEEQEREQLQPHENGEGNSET
T1 sequence (P06756 31-889 limits assumed): as the sequence (P06756 31-889 limits assumed) above
T1 sequence (P06756 891-1048 partner limits assumed): as the sequence (P06756 891-1048 limits assumed) above
T1 sequence (P05106 27-788): as the sequence (P05106 27-788 limits assumed) above

For “Cys-Asp-Gly-Arg-Cys-Gly-(SEQ ID NO: 24)TNF [CDGRC-TNF]”, the “Cytolytic Activity” value in the data set with L-M mouse fibroblasts is recorded as 2.59 (±0.69)×10^8 U/mg. The “Cytolytic Activity” value in the data set with L-M mouse fibroblasts (listed as DGR-TNF) is recorded as 2.5×10^8 U/mg. For the same compound, in the data set with EA.hy926 cells, the “EA.hy926 cell adhesion to coated product after heat-treatment” value is “completely inactive” and the “EA.hy926 cell adhesion to coated product” value is “completely inactive”.
In the case of “Loop-GNGRG: peptide corresponding to the NGR loop of FN-I5 (LQCISTGNGRGEWKCE)”, the “competition of the binding of FN-I5 to αvβ3” value in the data set with αvβ3 integrin is given as “Binding competition was observed”.
On the same count and under the same terms, then “Loop-RGGNG: control loop peptide of FN-I5 with scrambled sequence at the GNGRG site (LQCISTRGGNGEWKCE) [reference compound]”, with “not”.
On to `CC(C)[C@H](NC(=O)CNC(=O)[C@@H]1CSSC[C@H](N)C(=O)N[C@@H](CO)C(=O)NCC(=O)N[C@@H](CCCNC(=N)N)C(=O)N1)C(=O)N[C@@H](CCCNC(=N)N)C(=O)N[C@@H](Cc1ccc(O)cc1)C(=O)O` [SGR-pep] (H-CSGRCGVRY-OH; disulfide 1-5; N-terminus and C-terminus assumed), for which the IC50 at αvβ3 was more than 1000 µM.
With `CC(C)[C@H](NC(=O)CNC(=O)[C@@H]1CSSC[C@H](N)C(=O)N[C@H](CC(=O)O)C(=O)NCC(=O)N[C@@H](CCCNC(=N)N)C(=O)N1)C(=O)N[C@@H](CCCNC(=N)N)C(=O)N[C@@H](Cc1ccc(O)cc1)C(=O)O` [DDGR-pep] (H-C[dD]GRCGVRY-OH; disulfide 1-5 (inferred); N-terminus and C-terminus assumed), the “stability under integrin binding assay conditions” value in data set [1] is listed as “stable”.
Consider `CC(C)[C@H](NC(=O)CNC(=O)[C@@H]1CSSC[C@H](N)C(=O)N[C@@H](CC(N)=O)C(=O)NCC(=O)N[C@@H](CCCNC(=N)N)C(=O)N1)C(=O)N[C@@H](CCCNC(=N)N)C(=O)N[C@@H](Cc1ccc(O)cc1)C(=O)O` [NGR-pep, CNGRCGVRY] (H-CNGRCGVRY-OH; disulfide 1-5; N-terminus and C-terminus assumed), for which, on αvβ3, inhibition was half-maximal at 25 µM (IC50). Besides, the “stability when stored in water” value in data set [1] (37° C., water) was “stable for more than one week”. For the same compound, the half-life is 2 to 4 h in data set [1] (ammonium bicarbonate buffer and DMEM, 37° C., pH 8.5 ammonium bicarbonate and DMEM pH 7.3 (FIG. 5 legend), read-out: half-life of conversion to DGR-pep and isoDGR-pep); approximately 2 h in data set [1] (ammonium bicarbonate buffer, pH 8.5 (0.1 M ammonium bicarbonate), 37° C., read-out: half-life (height of main chromatographic peak) (converted)); approximately 4 h in data set [1] (pH 7.3 (DMEM), 37° C., read-out: half-life (height of main chromatographic peak) (converted)).
Turning to `CC(C)[C@H](NC(=O)CNC(=O)[C@@H]1CSSC[C@H](N)C(=O)N[C@@H](CC(=O)O)C(=O)NCC(=O)N[C@@H](CCCNC(=N)N)C(=O)N1)C(=O)N[C@@H](CCCNC(=N)N)C(=O)N[C@@H](Cc1ccc(O)cc1)C(=O)O` [DGR-pep] (H-CDGRCGVRY-OH; disulfide 1-5; N-terminus and C-terminus assumed), the IC50 against αvβ3 worked out at 60 µM.
Consider `CC(C)[C@H](NC(=O)CNC(=O)[C@@H]1CSSC[C@H](N)C(=O)N[C@H](C(=O)O)CC(=O)NCC(=O)N[C@@H](CCCNC(=N)N)C(=O)N1)C(=O)N[C@@H](CCCNC(=N)N)C(=O)N[C@@H](Cc1ccc(O)cc1)C(=O)O` [isoDGR-pep] (H-C[βAsp]GRCGVRY-OH; disulfide 1-5 (inferred); N-terminus and C-terminus assumed), for which the “stability under integrin binding assay conditions” value in data set [1] is recorded as “stable”.
“FN-I4-5: recombinant human fibronectin 4-5th type I repeats, residue 184-273, His-tag at the N-terminus”: in the data set with αvβ3 integrin, the “competition of the binding of FN-I5 to αvβ3” value is on record as “could compete”. Moreover, in the data set with EA.hy926 cells, the “EA.hy926 cell adhesion to coated product after heat-treatment” value is reported as “increase of cell adhesion” and the “EA.hy926 cell adhesion to coated product” value is “promoted cell adhesion”.
